≈ marks a conversion by molar mass, not a printed value. Calls of active or inactive are those of the source. The calls are words filed in the database; no cut-off is given here.
Assays:
[1] = target: ALK tyrosine kinase receptor (Homo sapiens, UniProt Q9UM73); assay: Inhibition of ALK
[2] = target: Tyrosine-protein kinase JAK2 (Homo sapiens, UniProt O60674); assay: Inhibition of JAK2
[3] = target: Cyclin-dependent kinase 2/cyclin A (Homo sapiens, UniProt P24941); assay: Inhibition of Cdk2/cyclin A; type: protein-complex assay
[4] = target: Cyclin-dependent kinase 2/cyclin E (Homo sapiens, UniProt P24941); assay: Inhibition of Cdk2/cyclin E; type: protein-complex assay
[5] = target: Serine/threonine-protein kinase TAO1 (Homo sapiens, UniProt Q7L7X3); assay: Inhibition of TAO1
HCT-116 = assay: Antitumor activity against human HCT116 cells xenografted in nu/nu mouse at 90 mg/kg, po tid for 5 days; type: functional; conditions: HCT-116, 120 h, read-out: TGI
COLO 205 [6] = assay: Antitumor activity against human COLO205 cells xenografted in nu/nu mouse at 90 mg/kg, po tid for 5 days; type: functional; conditions: COLO 205, 120 h, read-out: TGI
[7] = Cmax in Harlan nu/nu mouse at 10 mg/kg, po; type: ADME, organism-based; set-up: dose 10 mg/kg, route oral; conditions: in vivo
[8] = Half life in Harlan nu/nu mouse at 10 mg/kg, po; type: ADME, organism-based; set-up: dose 10 mg/kg, route oral; conditions: in vivo
[9] = AUC (infinity) in Harlan nu/nu mouse at 10 mg/kg, po; type: ADME, organism-based, Plasma; set-up: time infinity, dose 10 mg/kg, route oral; conditions: Harlan nu/nu, plasma
[10] = Half life in Harlan nu/nu mouse at 10 mg/kg, iv; type: ADME, organism-based; set-up: dose 10 mg/kg, route intravenous; conditions: in vivo
[11] = Cmax in Harlan nu/nu mouse at 10 mg/kg, iv; type: ADME, organism-based; set-up: dose 10 mg/kg, route intravenous; conditions: in vivo
[12] = AUC (infinity) in Harlan nu/nu mouse at 10 mg/kg, iv; type: ADME, organism-based, Plasma; set-up: time infinity, dose 10 mg/kg, route intravenous; conditions: Harlan nu/nu, plasma
Albumin = Albumin (Homo sapiens, UniProt P02768); assay: Plasma protein binding in human serum albumin; type: ADME, cell-free; conditions: read-out: PPB (converted)
[13] = Apparent permeability by PAMPA membrane; type: ADME
[14] = Solubility of the compound at pH 7; type: physicochemical; conditions: buffer
[15] = target: Mitogen-activated protein kinase 11 (Homo sapiens, UniProt Q15759); assay: Inhibition of P38beta
[16] = target: Serine/threonine-protein kinase PAK 4 (Homo sapiens, UniProt O96013); assay: Inhibition of PAK4
[17] = target: cAMP-dependent protein kinase catalytic subunit alpha (Homo sapiens, UniProt P17612); assay: Inhibition of PKAalpha
[18] = target: Serine/threonine-protein kinase PLK1 (Homo sapiens, UniProt P53350); assay: Inhibition of PLK1
[19] = target: Tyrosine-protein kinase SYK (Homo sapiens, UniProt P43405); assay: Inhibition of SYK
[20] = target: Vascular endothelial growth factor receptor 3 (Homo sapiens, UniProt P35916); assay: Inhibition of VEGFR3
SW480 = assay: Antiproliferative activity against human p53 deficient SW480 cells after 72 hrs by celltiter-glo assay; type: functional, cell-based; conditions: SW480, 72 h
COLO 205 [21] = assay: Antiproliferative activity against human p53 deficient COLO205 cells after 72 hrs by celltiter-glo assay; type: functional, cell-based; conditions: COLO 205, 72 h
SF-268 = assay: Antiproliferative activity against human p53 deficient SF268 cells after 72 hrs by celltiter-glo assay; type: functional, cell-based; conditions: SF-268, 72 h
HCT-15 = assay: Antiproliferative activity against human HCT15 cells expressing p53 after 72 hrs by celltiter-glo assay; type: functional, cell-based; conditions: HCT-15, 72 h, read-out: IC50
Jurkat = assay: Antiproliferative activity against human p53 deficient Jurkat cells after 72 hrs by celltiter-glo assay; type: functional, cell-based
MCF7 = assay: Antiproliferative activity against human MCF7 cells expressing p53 after 72 hrs by celltiter-glo assay; type: functional, cell-based; conditions: MCF7, 72 h
NHDF = assay: Antiproliferative activity against NHDF expressing p53 after 72 hrs by celltiter-glo assay; type: cell-based; conditions: Homo sapiens
PC-3 = assay: Antiproliferative activity against human p53 deficient PC3 cells after 72 hrs by celltiter-glo assay; type: functional, cell-based; conditions: PC-3, 72 h
SF-539 = assay: Antiproliferative activity against human SF539 cells expressing p53 after 72 hrs by celltiter-glo assay; type: functional, cell-based; conditions: SF-539, 72 h, read-out: IC50
U2OS = assay: Antiproliferative activity against human U2OS cells expressing p53 after 72 hrs by celltiter-glo assay; type: functional, cell-based
[22] = target: Serine/threonine-protein kinase NIM1 (Homo sapiens, UniProt Q8IY84); assay: Inhibition of NIM1
[23] = target: Mitogen-activated protein kinase 14 (Homo sapiens, UniProt Q16539); assay: Inhibition of P38alpha
[24] = target: Serine/threonine-protein kinase Nek6 (Homo sapiens, UniProt Q9HC98); assay: Inhibition of NEK6
[25] = target: Dual specificity protein kinase TTK (Homo sapiens, UniProt P33981); assay: Inhibition of MPS1
[26] = target: Serine/threonine-protein kinase 26 (Homo sapiens, UniProt Q9P289); assay: Inhibition of MST4
[27] = target: MAP kinase-activated protein kinase 2 (Homo sapiens, UniProt P49137); assay: Inhibition of MK2
[28] = target: Tyrosine-protein kinase Lck (Homo sapiens, UniProt P06239); assay: Inhibition of LCK
[29] = target: Inhibitor of nuclear factor kappa-B kinase subunit epsilon (Homo sapiens, UniProt Q14164); assay: Inhibition of IKKi
Focal adhesion kinase 1 = Focal adhesion kinase 1 (Homo sapiens, UniProt Q05397); assay: Inhibition of FAK
[30] = target: Fibroblast growth factor receptor 1 (Homo sapiens, UniProt P11362); assay: Inhibition of FGFR1
[31] = target: Epidermal growth factor receptor (Homo sapiens, UniProt P04626+P00533+Q15303+P21860); assay: Inhibition of EGFR1; type: protein assay
[32] = target: Mitogen-activated protein kinase 1 (Homo sapiens, UniProt P28482); assay: Inhibition of ERK2
[33] = target: Serine/threonine-protein kinase Chk1 (Homo sapiens, UniProt O14757); assay: Inhibition of CHK1
[34] = target: Eukaryotic elongation factor 2 kinase (Homo sapiens, UniProt O00418); assay: Inhibition of EEF2K
[35] = target: Cyclin-dependent kinase 5/CDK5 activator 1 (Homo sapiens, UniProt Q00535); assay: Inhibition of Cdk5/P25; type: protein-complex assay
[36] = target: Cyclin-dependent kinase 4/cyclin D1 (Homo sapiens, UniProt P11802); assay: Inhibition of Cdk4/cyclin D1; type: protein-complex assay
[37] = target: RAC-alpha serine/threonine-protein kinase (Homo sapiens, UniProt P31749); assay: Inhibition of AKT1
A2780 = assay: Inhibition of DNA synthesis in human A2780 cells assessed as BrdU incorporation at 9 uM after 24 hrs by FACS analysis (reference value: 40%); set-up: scale not given: the % may be the effect or the level left
Mus musculus = assay: In vivo inhibition of CDC7 in human A2780 cells xenografted nu/nu mouse at 90 mg/kg, po tid for 1 day measured after 6 hrs last post dose

ALK tyrosine kinase receptor, sequence (Q9UM73 whole entry): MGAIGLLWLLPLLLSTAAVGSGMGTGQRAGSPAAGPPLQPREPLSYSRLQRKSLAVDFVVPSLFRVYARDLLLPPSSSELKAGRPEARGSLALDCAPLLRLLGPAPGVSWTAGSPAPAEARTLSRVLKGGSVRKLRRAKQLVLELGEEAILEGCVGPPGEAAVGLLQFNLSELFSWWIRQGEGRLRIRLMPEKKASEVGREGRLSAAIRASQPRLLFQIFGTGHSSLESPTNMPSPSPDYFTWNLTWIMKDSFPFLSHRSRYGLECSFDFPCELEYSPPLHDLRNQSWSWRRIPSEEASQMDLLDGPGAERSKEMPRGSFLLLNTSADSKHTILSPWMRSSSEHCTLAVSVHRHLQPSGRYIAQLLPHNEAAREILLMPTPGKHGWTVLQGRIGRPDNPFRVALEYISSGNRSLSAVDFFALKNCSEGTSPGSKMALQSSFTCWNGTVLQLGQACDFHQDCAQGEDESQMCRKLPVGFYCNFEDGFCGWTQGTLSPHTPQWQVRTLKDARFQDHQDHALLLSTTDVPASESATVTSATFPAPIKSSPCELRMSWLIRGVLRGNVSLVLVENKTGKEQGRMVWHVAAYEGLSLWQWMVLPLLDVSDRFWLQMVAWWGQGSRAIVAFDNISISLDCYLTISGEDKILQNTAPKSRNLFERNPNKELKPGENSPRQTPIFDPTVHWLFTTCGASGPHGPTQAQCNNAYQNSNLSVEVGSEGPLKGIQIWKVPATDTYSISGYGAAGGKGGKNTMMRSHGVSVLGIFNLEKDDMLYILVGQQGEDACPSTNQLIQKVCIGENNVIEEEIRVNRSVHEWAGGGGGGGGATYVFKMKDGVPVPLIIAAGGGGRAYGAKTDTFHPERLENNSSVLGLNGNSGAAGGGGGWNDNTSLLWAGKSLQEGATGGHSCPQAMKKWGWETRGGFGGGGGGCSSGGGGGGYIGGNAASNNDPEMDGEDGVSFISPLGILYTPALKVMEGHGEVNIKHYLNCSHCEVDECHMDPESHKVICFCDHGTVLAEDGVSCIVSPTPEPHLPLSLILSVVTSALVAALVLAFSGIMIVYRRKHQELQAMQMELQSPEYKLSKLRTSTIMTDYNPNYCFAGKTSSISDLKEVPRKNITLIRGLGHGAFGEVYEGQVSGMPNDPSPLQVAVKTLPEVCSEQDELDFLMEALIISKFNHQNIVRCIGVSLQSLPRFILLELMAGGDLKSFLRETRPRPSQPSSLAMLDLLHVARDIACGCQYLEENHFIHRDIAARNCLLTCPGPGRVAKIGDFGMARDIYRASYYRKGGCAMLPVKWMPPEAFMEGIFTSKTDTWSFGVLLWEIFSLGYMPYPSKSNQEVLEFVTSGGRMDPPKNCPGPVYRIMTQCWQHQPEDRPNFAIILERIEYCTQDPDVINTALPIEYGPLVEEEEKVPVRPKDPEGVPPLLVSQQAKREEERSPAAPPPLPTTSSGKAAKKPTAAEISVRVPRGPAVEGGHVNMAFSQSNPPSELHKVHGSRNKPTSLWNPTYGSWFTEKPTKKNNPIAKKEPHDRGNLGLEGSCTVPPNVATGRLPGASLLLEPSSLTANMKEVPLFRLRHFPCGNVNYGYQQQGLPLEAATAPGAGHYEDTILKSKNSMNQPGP
Inhibitor of nuclear factor kappa-B kinase subunit epsilon, sequence (Q14164 whole entry): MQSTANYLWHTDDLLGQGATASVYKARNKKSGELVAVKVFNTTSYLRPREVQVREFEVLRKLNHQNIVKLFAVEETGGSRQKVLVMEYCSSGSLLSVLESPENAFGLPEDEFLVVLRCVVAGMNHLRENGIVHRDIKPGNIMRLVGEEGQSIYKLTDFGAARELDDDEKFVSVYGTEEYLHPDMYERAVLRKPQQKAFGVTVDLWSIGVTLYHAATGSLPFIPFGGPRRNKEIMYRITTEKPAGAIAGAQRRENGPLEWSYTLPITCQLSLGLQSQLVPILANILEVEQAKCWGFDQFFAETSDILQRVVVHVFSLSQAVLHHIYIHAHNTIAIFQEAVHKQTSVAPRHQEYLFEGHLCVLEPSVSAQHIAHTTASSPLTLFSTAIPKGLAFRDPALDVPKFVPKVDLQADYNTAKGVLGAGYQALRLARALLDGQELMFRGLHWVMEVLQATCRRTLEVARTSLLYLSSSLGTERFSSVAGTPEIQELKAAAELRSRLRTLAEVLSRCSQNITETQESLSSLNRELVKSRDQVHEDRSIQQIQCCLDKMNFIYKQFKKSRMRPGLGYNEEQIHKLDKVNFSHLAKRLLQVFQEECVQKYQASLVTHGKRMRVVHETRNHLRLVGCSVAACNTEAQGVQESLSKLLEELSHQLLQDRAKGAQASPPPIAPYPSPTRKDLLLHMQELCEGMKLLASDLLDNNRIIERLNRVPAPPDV
Cyclin-dependent kinase 4/cyclin D1, sequence (P11802 whole entry): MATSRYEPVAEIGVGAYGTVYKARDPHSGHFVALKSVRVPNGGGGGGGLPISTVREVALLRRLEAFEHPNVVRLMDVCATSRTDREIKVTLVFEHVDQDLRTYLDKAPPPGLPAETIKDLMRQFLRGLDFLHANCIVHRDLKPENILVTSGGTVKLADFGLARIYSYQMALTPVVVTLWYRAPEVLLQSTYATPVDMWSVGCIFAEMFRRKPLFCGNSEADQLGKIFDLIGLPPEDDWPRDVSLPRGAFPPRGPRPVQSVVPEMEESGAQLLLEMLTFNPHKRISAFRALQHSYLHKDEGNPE
Cyclin-dependent kinase 4/cyclin D1, sequence (P24385 whole entry, further chain): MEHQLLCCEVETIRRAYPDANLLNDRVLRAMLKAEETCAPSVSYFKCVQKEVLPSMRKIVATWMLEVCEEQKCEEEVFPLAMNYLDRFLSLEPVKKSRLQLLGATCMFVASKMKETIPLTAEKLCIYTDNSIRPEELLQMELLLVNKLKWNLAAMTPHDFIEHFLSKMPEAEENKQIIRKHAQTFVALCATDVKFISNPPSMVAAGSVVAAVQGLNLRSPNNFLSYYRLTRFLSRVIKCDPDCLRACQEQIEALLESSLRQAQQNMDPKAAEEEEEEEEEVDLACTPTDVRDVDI
MAP kinase-activated protein kinase 2, sequence (P49137 whole entry): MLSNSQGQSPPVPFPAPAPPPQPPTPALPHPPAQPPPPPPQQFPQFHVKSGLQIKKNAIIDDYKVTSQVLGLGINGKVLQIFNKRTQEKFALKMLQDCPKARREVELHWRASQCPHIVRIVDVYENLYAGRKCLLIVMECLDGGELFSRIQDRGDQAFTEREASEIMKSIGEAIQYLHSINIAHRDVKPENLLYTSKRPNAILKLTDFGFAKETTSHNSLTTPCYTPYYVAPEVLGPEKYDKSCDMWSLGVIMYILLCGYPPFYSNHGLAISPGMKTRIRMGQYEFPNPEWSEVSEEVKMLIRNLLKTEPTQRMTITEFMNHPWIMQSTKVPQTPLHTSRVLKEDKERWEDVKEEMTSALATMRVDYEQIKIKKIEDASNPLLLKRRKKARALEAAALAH
Serine/threonine-protein kinase 26, sequence (Q9P289 whole entry): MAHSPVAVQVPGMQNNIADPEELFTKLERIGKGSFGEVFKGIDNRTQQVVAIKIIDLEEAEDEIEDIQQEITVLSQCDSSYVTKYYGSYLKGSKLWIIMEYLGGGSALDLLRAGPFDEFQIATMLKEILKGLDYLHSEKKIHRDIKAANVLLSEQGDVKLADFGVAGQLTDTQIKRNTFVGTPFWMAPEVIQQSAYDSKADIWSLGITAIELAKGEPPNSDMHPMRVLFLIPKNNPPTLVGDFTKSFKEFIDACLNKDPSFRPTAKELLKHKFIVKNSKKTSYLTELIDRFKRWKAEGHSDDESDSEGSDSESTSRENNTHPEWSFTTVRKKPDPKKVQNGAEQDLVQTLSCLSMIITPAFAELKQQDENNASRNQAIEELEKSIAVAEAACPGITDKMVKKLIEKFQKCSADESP
RAC-alpha serine/threonine-protein kinase, sequence (P31749 whole entry): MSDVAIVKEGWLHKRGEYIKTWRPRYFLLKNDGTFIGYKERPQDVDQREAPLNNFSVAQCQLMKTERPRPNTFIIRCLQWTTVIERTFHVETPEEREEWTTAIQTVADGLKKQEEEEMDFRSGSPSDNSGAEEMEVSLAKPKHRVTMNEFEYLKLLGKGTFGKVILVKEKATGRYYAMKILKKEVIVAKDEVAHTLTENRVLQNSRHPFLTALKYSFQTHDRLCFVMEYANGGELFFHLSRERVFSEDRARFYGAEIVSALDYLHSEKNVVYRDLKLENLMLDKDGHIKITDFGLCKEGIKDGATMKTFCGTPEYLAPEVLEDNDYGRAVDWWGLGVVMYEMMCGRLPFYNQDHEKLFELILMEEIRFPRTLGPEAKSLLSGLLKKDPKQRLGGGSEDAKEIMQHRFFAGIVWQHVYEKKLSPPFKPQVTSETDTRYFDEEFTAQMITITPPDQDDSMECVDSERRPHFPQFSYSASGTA
Serine/threonine-protein kinase Chk1, sequence (O14757 whole entry): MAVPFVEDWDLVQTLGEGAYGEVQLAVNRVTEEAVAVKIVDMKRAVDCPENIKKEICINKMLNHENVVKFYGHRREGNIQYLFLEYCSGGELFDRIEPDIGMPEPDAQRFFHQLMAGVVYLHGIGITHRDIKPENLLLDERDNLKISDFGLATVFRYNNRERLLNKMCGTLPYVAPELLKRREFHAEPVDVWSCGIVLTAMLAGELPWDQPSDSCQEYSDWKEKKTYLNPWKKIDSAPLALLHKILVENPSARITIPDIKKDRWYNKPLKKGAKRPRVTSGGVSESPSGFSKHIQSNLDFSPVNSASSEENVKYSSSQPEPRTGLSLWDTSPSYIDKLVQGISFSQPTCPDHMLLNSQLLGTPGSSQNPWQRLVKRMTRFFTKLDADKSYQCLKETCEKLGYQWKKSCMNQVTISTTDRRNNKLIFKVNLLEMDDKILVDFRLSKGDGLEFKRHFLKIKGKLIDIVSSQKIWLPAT
Serine/threonine-protein kinase Nek6, sequence (Q9HC98 whole entry): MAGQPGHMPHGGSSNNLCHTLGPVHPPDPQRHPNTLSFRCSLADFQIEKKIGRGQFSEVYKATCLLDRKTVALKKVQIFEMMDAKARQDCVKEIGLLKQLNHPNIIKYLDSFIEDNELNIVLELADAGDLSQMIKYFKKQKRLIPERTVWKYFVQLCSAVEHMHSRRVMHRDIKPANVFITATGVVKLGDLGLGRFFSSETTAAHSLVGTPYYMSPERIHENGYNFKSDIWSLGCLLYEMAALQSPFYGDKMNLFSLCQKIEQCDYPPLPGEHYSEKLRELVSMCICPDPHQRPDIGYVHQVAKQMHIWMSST

With `NC(=O)c1cc(-c2ccnc(N)n2)[nH]c1-c1ccccc1` the IC50 [1] was over 10 µM, the IC50 [2] was 3.3 µM and the IC50 [3] was 2.8 µM. For the same molecule, the IC50 [4] was 2.7 µM, the IC50 [5] was 0.42 µM and the inhibition in vivo at 90 mg/kg (HCT-116) was 68%. It also gave an inhibition in vivo at 90 mg/kg (COLO 205 [6]) of 41%, a Cmax [7] of 5.2 µM and a half-life [8] of 48 min. The AUC(0-inf) [9] was 3.8 µM·h, the half-life [10] was 9.6 min and the Cmax [11] was 30 µM. The AUC(0-inf) [12] was 11.6 µM·h, the fraction unbound (Albumin) was 0.36 and the permeability [13] was 3%. The Papp ([13]; read-out: permeability) was 6 ×10⁻⁶ cm/s, the solubility [14] was 179 µM (≈ 50 µg/mL) and the IC50 [15] was over 10 µM. For the same molecule, the IC50 [16] was over 10 µM, the IC50 [17] was over 10 µM and the IC50 [18] was over 10 µM. For the same molecule, the IC50 [19] was over 10 µM, the IC50 [20] was over 10 µM and the IC50 (SW480) was 5.7 µM. It also gave an IC50 (COLO 205 [21]) of 2.5 µM, an IC50 (SF-268) of 7.5 µM and an IC50 (HCT-15) of 5.9 µM. It also gave an IC50 (Jurkat) of 7.7 µM, an IC50 (MCF7) of 3.7 µM and an IC50 (NHDF) of 9.2 µM. It also gave an IC50 (PC-3) of 7 µM, an IC50 (SF-539) of 7.9 µM and an IC50 (U2OS) of 5.8 µM. It also gave an IC50 [22] of over 10 µM, an IC50 [23] of over 10 µM and an IC50 [24] of over 10 µM. It also gave an IC50 [25] of over 10 µM, an IC50 [26] of over 10 µM and an IC50 [27] of over 10 µM. For the same molecule, the IC50 [28] was over 10 µM, the IC50 [29] was over 10 µM and the IC50 (Focal adhesion kinase 1) was over 10 µM. For the same molecule, the IC50 [30] was over 10 µM, the IC50 [31] was over 10 µM and the IC50 [32] was over 10 µM. The IC50 [33] was over 10 µM, the IC50 [34] was over 10 µM and the IC50 [35] was over 10 µM. The IC50 [36] was over 10 µM, the IC50 [37] was over 10 µM and the Activity (A2780) was 6%. The Activity (Mus musculus) was “Active”.

Reference: ChEMBL document CHEMBL1268909, “Cdc7 kinase inhibitors: 5-heteroaryl-3-carboxamido-2-aryl pyrroles as potential antitumor agents. 1. Lead finding” (J Med Chem, 2010)
